We go through three compounds from patent publication US5466689A, “Morpholine derivatives and their use” (Takeda Chemical Industries, Ltd., priority 1993, dated 1995).

One series concerns Substance-P. As to the kind of experiment: Action of Substance-P for inhibiting biting response by its administration at subarachnoid space. It is filed as in vivo, Jcl:ICR mice. The note with it: mice; dosage 10 μg/mouse; SP 10 ng/5 μl/mouse at subarachnoid space; bitings counted for one minute. The procedure:
Action of Substance-P for inhibiting biting response by its administration at subarachnoid space
Five-week old male Jcl:ICR mice (10 animals per group) were employed. Dorsal cutaneous incisions were made under anesthesia at least one hour before the experiments. Substance-P (SP) was administered in an amount of 10 ng/5 μl/mouse at the subarachnoid space of the spinal cord. Then the test animals started to bite themselves at the abdomen alternately. The number of bitings was counted for one minute immediately after the SP administration. The values thus obtained were made indexes of pseudo pain reflexes caused by SP.
Test drugs were dissolved in a solution (Tween 80:ethanol:physiological saline=20:10:70) together with a given amount of SP. The solutions thus prepared were administered to test animals. In the case of oral administration, 5% suspension of gum arabica was employed, which was administered at 30 minutes before the SP administration.
The inhibition rate (%) of each sample was calculated by the following formula. Inhibition rate (%)=(number of counts in the control group-numberof counts in each sample)/(number of counts in the control group)×100.
And, 50% inhibition dose (ID50) was calculated from the primary linear regression line of dose-dependent curve.

In another series the test system is Writhing. As to the kind of experiment: Acetic acid-writhing method. It is filed as in vivo, Slc:ICR mice. The note with it: mice, 0.6% acetic acid i.p. 30 min later, writhing during 20 minutes. The procedure:
Acetic acid-writhing method
Male Slc:ICR mice of four-week old (10 animals per group) were employed. Test compounds were orally administered. Thirty minutes later, purified water containing 0.6% acetic acid was injected intraperitoneally (0.1 ml/10 g body weight). Writhing shown by the test animals during 20 minutes was observed on individual animals.
On each test animal, the inhibition rate against the average response times in the control group was calculated. The test compound was administered as a 5% suspension of gum arabica.

Series [1] can be described thus: acute toxicity (LD50), oral, rats. Particulars: rat, in vivo, orally administered to rats. The source says: Therefore, the compounds of this invention and their salts can be used for prophylaxis or therapy of diseases including pain due to bone diseases (arthritis, rheumatic fever, osteoporosis), pain induced by cancer or the like, lumbago, postoperative pain, neuralgia, pain induced by inflammatory diseases, pain caused by tooth extraction, tooth-ache and pain due to burn trauma, as well as neurosis (e.g. anxiety neurosis, depression, mental disorder), somnipathy or the like. Since the compounds of this invention act on a neurotransmitting system such as dopamine or norepinephrine, they can be used also as prophylactic and therapeutic drugs for circulatory diseases (e.g. hypertension).

Molecules are shown by their SMILES.

Regarding `C=C[C@]12OCCN(CC)[C@@H]1Cc1c[nH]c3cccc2c13` (relative stereo) [Example 1, Trans-4,6,6a,8,9,10a-hexahydro-7-ethyl-10a-vinyl-7H-indolo[3,4-gh][1.4]benzoxazine], in the series on Substance-P, the “Inhibition rate (%), antagonistic action to Substance-P (biting response)” value was 80%.
The term LD50 denotes the dose at which mortality reaches 50%. As for `CCN1CCO[C@]2(C)c3c(OC)ccc4[nH]cc(c34)C[C@@H]12` (relative stereo) [Example 2, Trans-4,6,6a,8,9,10a-hexahydro-7-ethyl-1-methoxy-10a-methyl-7H-indole[3,4-gh][1.4]benzoxazine], the “Inhibition rate (%), analgesic action (writhing)” value in the series with Writhing (25 mg/kg,p.o.) is 99%. In addition, the “Inhibition rate (%), antagonistic action to Substance-P (biting response)” value in the series with Substance-P is 100%. The compound also came in with an LD50 in series [1] of at least 100 mg/kg.
For the compound `CCN1CCO[C@]2(C)c3cccc4[nH]cc(c34)C[C@@H]12` (relative stereo) [Example 8, Trans-4,6,6a,8,9,10a-hexahydro-7-ethyl-10a-methyl-7H-indolo[3,4-gh][1,4]benzoxazine], in the series with Writhing (12.5 mg/kg,p.o.), the “Inhibition rate (%), analgesic action (writhing)” value amounted to 61%. In addition, the “Inhibition rate (%), antagonistic action to Substance-P (biting response)” value in the series with Substance-P worked out at 65%.
